# Test results reported in patent US5607967A, “Treatment of alzheimer's disease with 5-(tetradecyloxy)-2-furan carboxylic acid” (Merck & Co., Inc., priority 1994, dated 1997).
# Experiments:
# [1] = test system: Muscarinic receptor agonist (Pilocarpine) induced catalepsy; experiment: Pilocarpine induced catalepsy (Bar method); type: in vivo, rat; details: carrier pretreatment, 24 h later 16 mg/kg Pilocarpine
# Description: Catalepsy was determined by a modification of the Bar method (Undie and Friedman, 1988). A steel bar, 1.1 cm in diameter and 50 cm long, was suspended at a height of 10 cm above the working surface. Three sides of the bench around the bar were walled off with brown cardboard, and the linings on the bench surface were selected to be of the same color with the cardboard walls. The animal's hind limbs were freely placed on the bench, the fail laid out to the back, and the forelimbs placed over the bar. The length of time a rat stayed up on the bar was noted up to a preset cut-off point of 120 s. The time was counted off upon observing any of the following actions: (1) the animal came off, placing its two forepaws on the bench, (2) the animal climbed onto or over the bar with both hind limbs, (3) the animal initiated locomotion along or around the bar. Subsequently, time readings were translated into scores by awarding a score of 1 for each successfully completed 5 s on the bar. For each observation time, catalepsy scores were averaged for all the animals in a group to give the Mean Score of the group at that observation time. Further, the scores for each animal at all the observation times were added to give the total score for that animal. The mean of this last group of numbers was called the Mean Total Score of the group.
# Catalepsy scores were analyzed by computer in accordance with the statistical procedures outlined by Winer, B. J.: Statistical principles in experimental design. McGraw-Hill, New York, pp. 10-428, 1971. Generally, for a given set of comparisons, observations were subjected to an appropriate analysis of variance followed by two-tailed Dunnett or Student's t-tests to detect differences between treatment groups.
# Rats were pretreated with 0.4 mg/kg TOFA or with carrier (S.C.). Twenty-four hours later, the rats were challenged with 16 mg/kg Pilocarpine, an agonist of the muscarinic cholinergic receptor, and the duration of catalepsy was monitored as described in Example 10.
# [2] = test system: GR/NER chimeric receptor; experiment: Activation of GR/NER in COS-7 cells (luciferase); details: for Fold of stimulation GR/NER: no TOFA
# Description: The ligand dependent transcription assays were performed as described in Example 4. The transfected COS cells were treated with dopamine, TOFA, or with the combination of TOFA and dopamine at the indicated concentrations and tested for luciferase activity.
# [3] = test system: GR/NER chimeric receptor; experiment: Activation of GR/NER in CV1 cells (luciferase); details: for Fold of stimulation GR/NER: no TOFA
# Description: The ligand dependent transcription assays were performed as described in Example 4, using CV1 cells in place of COS cells. The transfected CV1 cells were treated with dopamine, TOFA, or with a combination of TOFA and dopamine at the indicated concentrations and tested for luciferase activity.
# CV1 cells were co-transfected with the MMTV-Luciferase reporter gene (pJA358) and the GR/NER chimeric receptor as described in Example 4. The cells were treated with increasing amount of the dopamine D1 receptor antagonist SCH 23390 with or without 50 μM […] dopamine.
# [4] = molecular target: T1, GR/PPAR chimeric receptor (Mus musculus, UniProt P23204); experiment: Ligand dependent transcription assay, GR/PPAR chimeric receptor with MMTV-luciferase reporter; type: cell-based
# T1 construct: COS cells, MMTV-luciferase
# T1 sequence (P23204 1-468): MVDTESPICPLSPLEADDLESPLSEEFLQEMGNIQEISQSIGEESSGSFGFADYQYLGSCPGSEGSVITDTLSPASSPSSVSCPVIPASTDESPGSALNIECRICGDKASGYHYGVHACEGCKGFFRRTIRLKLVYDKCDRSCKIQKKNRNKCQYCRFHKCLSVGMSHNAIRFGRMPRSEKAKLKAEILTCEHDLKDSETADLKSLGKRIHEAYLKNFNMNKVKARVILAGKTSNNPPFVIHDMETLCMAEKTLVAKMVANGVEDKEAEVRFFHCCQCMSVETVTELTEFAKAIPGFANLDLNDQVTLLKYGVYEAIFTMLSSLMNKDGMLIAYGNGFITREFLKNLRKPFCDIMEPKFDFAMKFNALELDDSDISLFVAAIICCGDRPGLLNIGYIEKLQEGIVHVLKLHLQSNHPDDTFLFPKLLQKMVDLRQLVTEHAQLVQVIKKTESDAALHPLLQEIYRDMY
# T1 sequence (P06537 1-792 partner): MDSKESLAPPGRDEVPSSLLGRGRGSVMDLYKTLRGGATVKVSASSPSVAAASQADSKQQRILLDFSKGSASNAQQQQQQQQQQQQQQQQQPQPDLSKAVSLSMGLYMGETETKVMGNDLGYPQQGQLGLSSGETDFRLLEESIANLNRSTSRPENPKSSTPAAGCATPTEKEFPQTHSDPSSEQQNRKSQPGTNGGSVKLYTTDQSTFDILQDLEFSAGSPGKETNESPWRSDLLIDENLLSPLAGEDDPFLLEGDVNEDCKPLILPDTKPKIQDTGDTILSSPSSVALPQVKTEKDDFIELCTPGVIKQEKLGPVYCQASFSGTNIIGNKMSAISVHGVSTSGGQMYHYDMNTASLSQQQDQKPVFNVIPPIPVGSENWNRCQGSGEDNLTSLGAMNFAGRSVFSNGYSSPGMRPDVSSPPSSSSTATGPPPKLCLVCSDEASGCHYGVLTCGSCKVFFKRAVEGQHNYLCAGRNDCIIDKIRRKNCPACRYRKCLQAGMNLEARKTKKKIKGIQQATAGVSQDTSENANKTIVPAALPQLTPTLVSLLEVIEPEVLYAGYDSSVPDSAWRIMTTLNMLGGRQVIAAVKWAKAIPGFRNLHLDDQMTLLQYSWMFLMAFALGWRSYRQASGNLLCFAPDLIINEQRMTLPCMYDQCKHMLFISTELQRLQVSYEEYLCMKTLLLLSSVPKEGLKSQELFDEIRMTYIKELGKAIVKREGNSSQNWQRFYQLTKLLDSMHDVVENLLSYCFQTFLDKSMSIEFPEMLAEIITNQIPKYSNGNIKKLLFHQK
# Description: (§1) Similar hybrid receptors GR/NER, GR/NUC and GR/PPAR, in identical expression plasmid backgrounds were prepared essentially as described for the construction of the GR/mPPAR and GR/NUC chimeric receptors in Schmidt et al., "Identification of a new member of the steroid hormone receptor superfamily that is activated by a peroxisome proliferator and fatty acids," Mol. Endocrinol., 6(10):1634-41, 1992, and in Boie et al., "Enantioselective activation of the peroxisome proliferator-activated receptor", J. Biol. Chem. 268(8):5530-4, 1993.
# (§2) Briefly, the amino terminal portion of the mouse glucocorticoid receptor (mGR), that includes the DNA binding domain was fused to the putative ligand binding domains of the nuclear receptor NER, hNUC-I (Schmidt et al., 1992), mPPAR (Issenmann and Green, 1990) to form the respective chimeric receptors GR/NER, GR/NUC and GR/PPAR. The GR/NER chimeric receptor was constructed as described for the GR/NUC and GR/PPAR hybrid receptors (Schmidt et al., 1992; Boie et al). The cDNA sequences coding for amino acids Arg^155 and Glu^156 of the NER receptor were converted to the Xho I restriction site, that was later used for the ligation to the GR cDNA sequences that coded for the DNA binding domain. Thus, converting amino acid residues Arg^155 and Glu^156 of NER receptor to amino acid residues Ser^155 and His^156.
# The ligand transcription assay mediated by GR/PPAR in COS cells was performed as described in Example 4. The cells were treated with TOFA and Cerulenin at 0.1, 1, 10 and 100 μM.
# [5] = test system: GR/NER chimeric receptor; experiment: Ligand dependent transcription assay, GR/NER chimeric receptor with MMTV-luciferase reporter; type: cell-based, human
# Description: To search for putative ligands for the NER receptor, the chimeric receptor GR/NER was prepared. […] Chimeric receptors were prepared in which the amino terminal portion of the mouse glucocorticoid receptor (mGR) that includes the DNA binding domain was fused to the putative ligand binding domains of the nuclear receptor NER to form the respective chimeric receptor GR/NER. The cDNA sequences coding for amino acid residues Arg^155 and Glu^156 of the hNER receptor (Shinar et al., NER, a new member of a gene family encoding the steroid hormone nuclear receptor; GENE (in press) were convened to the Xho I restriction site, which site was later used for the ligation to the GR cDNA sequences that coded for the DNA binding domain. Thus, the amino acid residues Arg^155 and Glu^156 of the NER receptor were convened to amino acid residues Ser^155 and His^156.
# The chimera was employed in ligand dependent transactivation assays with the reporter gene MMTV-luciferase, in which the luciferase cDNA is transcribed under the control of the MMTV promoter.
# as §1, §2
compound,measurement,setting,value
"CC[C@@H]1C(=O)OC[C@@H]1Cc1cncn1C [Pilocarpine, pilocarpine, reference compound]",Catalepsy Duration,[1],27.3 ± 3.6 s
"NCCc1ccc(O)c(O)c1 [Dopamine, dopamine]",Fold of stimulation GR/NER,"[2]; dopamine 0.1 μM, 1440 min",1.10 ± 0.07 fold
same,Fold of stimulation GR/NER,[2]; dopamine 1.0 μM,0.87 ± 0.06 fold
same,Fold of stimulation GR/NER,"[2]; dopamine 10 μM, 1440 min",0.84 ± 0.08 fold
same,Fold of stimulation GR/NER,"[2]; dopamine 100 μM, 1440 min",0.87 ± 0.11 fold
same,Suppression of GR/NER mediated transcription in COS-7 cells,[2]; no significant dopamine D1 receptor expression,suppression was not seen
same,Effect on transcription mediated by GR/NER in CV1 cells,[3],suppressed the transcription
same,Fold of stimulation GR/NER,[3]; dopamine 0.1 μM,1.28 ± 0.05 fold
same,Fold of stimulation GR/NER,[3]; dopamine 1.0 μM,0.88 ± 0.11 fold
same,Fold of stimulation GR/NER,[3]; dopamine 10 μM,0.55 ± 0.06 fold
same,Fold of stimulation GR/NER,[3]; dopamine 100 μM,0.44 ± 0.14 fold
"Cc1cccc(Nc2cc(Cl)nc(SCC(=O)O)n2)c1C [WY14643, reference compound]",Expression mediated by GR/PPAR,[4],activated expression
same,Expression mediated by GR/NER,[5],not by the GR/NER chimera
